The Kd is the equilibrium constant for the complex coming apart.

The target of the experiment is T1, cobamide (5′ phosphate) synthase (CobS) (Salmonella enterica, UniProt Q05602).
T1 construct: CobS^WT reconstituted in proteoliposomes
Briefly: DRaCALA with […]α-RP, CobS proteoliposomes (Kd […] for DHPC-solubilized CobS); also protection in limited trypsin proteolysis. It counts as binding.

T1 sequence (Q05602 whole entry): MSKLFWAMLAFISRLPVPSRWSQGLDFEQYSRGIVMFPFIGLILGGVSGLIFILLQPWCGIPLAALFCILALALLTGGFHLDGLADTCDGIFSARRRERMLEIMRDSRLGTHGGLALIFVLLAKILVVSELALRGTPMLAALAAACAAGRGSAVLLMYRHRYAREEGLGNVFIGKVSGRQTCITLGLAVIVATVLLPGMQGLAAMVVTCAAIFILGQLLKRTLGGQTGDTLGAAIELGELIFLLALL

With `Cc1cc2ncn([C@H]3O[C@H](COP(=O)(O)O)[C@@H](O)[C@H]3O)c2cc1C` [α-RP, N1-(5-phospho-alpha-D-ribosyl)-5,6-dimethylbenzimidazole], the Kd was 580 nM.

(Values after PMC8092220, “Insights into the Relationship between Cobamide Synthase and the Cell Membrane” (mBio, 2021).)
